Measured values taken from patent US20110165136A1, “Novel Herbal Composition for Treatment of Psoriasis and Other Skin Disorders” (HIMALAYA GLOBAL HOLDINGS LTD., priority 2010, published 2011).

System: Mouse tail
Test: Topical anti-psoriatic activity by Mouse tail test
Type: in vivo
Settings: follow up study, 0.005%
Description: Pharmacological Screening of the Extracts and Oils for Topical Anti-Psoriatic Activity by Mouse Tail Test The composite extracts, oils blends and individual alcohol extracts were subjected to screening for evaluation of Anti-psoriatic activity by Mouse tail test and the results are summarized as FIG. 1-4.

For `C=C1/C(=C\C=C2/CCC[C@]3(C)[C@@H]([C@H](C)/C=C/[C@@H](O)C4CC4)CC[C@@H]23)C[C@@H](O)C[C@@H]1O` [Calcipotriol], the “para to orthokeratosis conversion” value was “not found to be statistically significant”.
